Assay results as given in PubChem BioAssay (NCI).
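Assay format: 96-well plates, 48-hour exposure. At the TGI there is no net growth.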 Peptide text beside a SMILES is read from it. * marks the point of attachment. Cbz = O=C(OCc1ccccc1)*

How the values were obtained:
Assay in all cases: DTP human tumour cell line panel, 48 h
UACC-257 melanoma = system: UACC-257 melanoma
KM12 colon = system: KM12 colon
LOX IMVI melanoma = system: LOX IMVI melanoma
ACHN renal = system: ACHN renal
U251 CNS = system: U251 CNS
SK-OV-3 ovarian = system: SK-OV-3 ovarian
NCI/ADR-RES ovarian = system: NCI/ADR-RES ovarian
IGROV1 ovarian = system: IGROV1 ovarian
SF-295 CNS = system: SF-295 CNS
SF-268 CNS = system: SF-268 CNS
OVCAR-4 ovarian = system: OVCAR-4 ovarian
UACC-62 melanoma = system: UACC-62 melanoma
MDA-MB-435 = system: MDA-MB-435
SNB-19 CNS = system: SNB-19 CNS
SR leukemia = system: SR leukemia
SN12C renal = system: SN12C renal
A549 NSCLC = system: A549 NSCLC
MDA-N = system: MDA-N
CCRF-CEM leukemia = system: CCRF-CEM leukemia
PC-3 prostate = system: PC-3 prostate
SK-MEL-5 melanoma = system: SK-MEL-5 melanoma
EKVX NSCLC = system: EKVX NSCLC
MALME-3M melanoma = system: MALME-3M melanoma
DU-145 prostate = system: DU-145 prostate
HS 578T breast = system: HS 578T breast
RPMI-8226 leukemia = system: RPMI-8226 leukemia
SK-MEL-28 melanoma = system: SK-MEL-28 melanoma
UO-31 renal = system: UO-31 renal
NCI-H23 lung = system: NCI-H23 lung
NCI-H522 lung = system: NCI-H522 lung
OVCAR-5 ovarian = system: OVCAR-5 ovarian
HT29 colon = system: HT29 colon
NCI-H460 lung = system: NCI-H460 lung
MCF7 breast = system: MCF7 breast
RXF 393 renal = system: RXF 393 renal
MDA-MB-231 breast = system: MDA-MB-231 breast
OVCAR-8 ovarian = system: OVCAR-8 ovarian
M14 melanoma = system: M14 melanoma
SNB-75 CNS = system: SNB-75 CNS
CAKI-1 renal = system: CAKI-1 renal
HCT-116 colon = system: HCT-116 colon
COLO 205 colon = system: COLO 205 colon
HCT-15 colon = system: HCT-15 colon
SK-MEL-2 melanoma = system: SK-MEL-2 melanoma
MOLT-4 leukemia = system: MOLT-4 leukemia
TK-10 renal = system: TK-10 renal
786-0 renal = system: 786-0 renal
SW-620 colon = system: SW-620 colon
HL-60(TB) leukemia = system: HL-60(TB) leukemia
A498 renal = system: A498 renal
T-47D breast = system: T-47D breast
BT-549 breast = system: BT-549 breast
HCC-2998 colon = system: HCC-2998 colon
HOP-62 NSCLC = system: HOP-62 NSCLC
NCI-H226 lung = system: NCI-H226 lung
HOP-92 NSCLC = system: HOP-92 NSCLC
K-562 leukemia = system: K-562 leukemia

## CCOC(=O)CCC(NC(=O)CNC(=O)CNC(=O)C(CCC(=O)OCC)NC(=O)C(CCC(=O)OCC)NC(=O)C(CCC(=O)OCC)NC(=O)OCc1ccccc1)C(=O)NC(CCC(=O)OCC)C(=O)NC(CCC(=O)OCC)C(=O)OCC (stereo not drawn) (Cbz-E(OEt)E(OEt)E(OEt)GGE(OEt)E(OEt)E(OEt)-OEt; configuration not given here)
UACC-257 melanoma
  TGI: > 75 µM
KM12 colon
  TGI: > 75 µM
LOX IMVI melanoma
  TGI: > 75 µM
ACHN renal
  TGI: > 75 µM
U251 CNS
  TGI: > 75 µM
SK-OV-3 ovarian
  TGI: > 75 µM
NCI/ADR-RES ovarian
  TGI: > 75 µM
IGROV1 ovarian
  TGI: > 75 µM
SF-295 CNS
  TGI: > 75 µM
SF-268 CNS
  TGI: > 75 µM
OVCAR-4 ovarian
  TGI: > 75 µM
UACC-62 melanoma
  TGI: > 75 µM
MDA-MB-435
  TGI: > 75 µM
SNB-19 CNS
  TGI: > 75 µM
SR leukemia
  TGI: > 75 µM
SN12C renal
  TGI: > 75 µM
A549 NSCLC
  TGI: > 75 µM
MDA-N
  TGI: > 75 µM
CCRF-CEM leukemia
  TGI: > 75 µM
PC-3 prostate
  TGI: > 75 µM
SK-MEL-5 melanoma
  TGI: > 75 µM
EKVX NSCLC
  TGI: > 75 µM
MALME-3M melanoma
  TGI: > 75 µM
DU-145 prostate
  TGI: > 75 µM
HS 578T breast
  TGI: > 75 µM
RPMI-8226 leukemia
  TGI: > 75 µM
SK-MEL-28 melanoma
  TGI: > 75 µM
UO-31 renal
  TGI: > 75 µM
NCI-H23 lung
  TGI: > 75 µM
NCI-H522 lung
  TGI: > 75 µM
OVCAR-5 ovarian
  TGI: > 75 µM
HT29 colon
  TGI: > 75 µM
NCI-H460 lung
  TGI: > 75 µM
MCF7 breast
  TGI: > 75 µM
RXF 393 renal
  TGI: > 75 µM
MDA-MB-231 breast
  TGI: > 75 µM
OVCAR-8 ovarian
  TGI: > 75 µM
M14 melanoma
  TGI: > 75 µM
SNB-75 CNS
  TGI: > 75 µM
CAKI-1 renal
  TGI: > 75 µM
HCT-116 colon
  TGI: > 75 µM
COLO 205 colon
  TGI: > 75 µM
HCT-15 colon
  TGI: > 75 µM
SK-MEL-2 melanoma
  TGI: > 75 µM
MOLT-4 leukemia
  TGI: > 75 µM
TK-10 renal
  TGI: > 75 µM
786-0 renal
  TGI: > 75 µM
SW-620 colon
  TGI: > 75 µM

## CCC1=NC(N/N=C/c2ccco2)=N/C1=C\c1ccco1
UACC-257 melanoma
  TGI: > 100 µM
HL-60(TB) leukemia
  TGI: > 100 µM
KM12 colon
  TGI: > 100 µM
LOX IMVI melanoma
  TGI: > 100 µM
ACHN renal
  TGI: > 100 µM
U251 CNS
  TGI: > 100 µM
SK-OV-3 ovarian
  TGI: > 100 µM
A498 renal
  TGI: > 100 µM
NCI/ADR-RES ovarian
  TGI: > 100 µM
IGROV1 ovarian
  TGI: > 100 µM
SF-295 CNS
  TGI: > 100 µM
SF-268 CNS
  TGI: > 100 µM
OVCAR-4 ovarian
  TGI: > 100 µM
UACC-62 melanoma
  TGI: > 100 µM
T-47D breast
  TGI: > 100 µM
MDA-MB-435
  TGI: > 100 µM
SNB-19 CNS
  TGI: > 100 µM
SR leukemia
  TGI: > 100 µM
BT-549 breast
  TGI: > 100 µM
SN12C renal
  TGI: > 100 µM
A549 NSCLC
  TGI: > 100 µM
MDA-N
  TGI: > 100 µM
CCRF-CEM leukemia
  TGI: > 100 µM
PC-3 prostate
  TGI: > 100 µM
SK-MEL-5 melanoma
  TGI: > 100 µM
EKVX NSCLC
  TGI: > 100 µM
MALME-3M melanoma
  TGI: > 100 µM
DU-145 prostate
  TGI: > 100 µM
HCC-2998 colon
  TGI: > 100 µM
HS 578T breast
  TGI: > 100 µM
RPMI-8226 leukemia
  TGI: > 100 µM
SK-MEL-28 melanoma
  TGI: > 100 µM
UO-31 renal
  TGI: > 100 µM
NCI-H23 lung
  TGI: > 100 µM
NCI-H522 lung
  TGI: > 100 µM
OVCAR-5 ovarian
  TGI: > 100 µM
HT29 colon
  TGI: > 100 µM
HOP-62 NSCLC
  TGI: > 100 µM
NCI-H460 lung
  TGI: > 100 µM
RXF 393 renal
  TGI: > 100 µM
MDA-MB-231 breast
  TGI: > 100 µM
OVCAR-8 ovarian
  TGI: > 100 µM
NCI-H226 lung
  TGI: > 100 µM
M14 melanoma
  TGI: > 100 µM
CAKI-1 renal
  TGI: > 100 µM
HOP-92 NSCLC
  TGI: > 100 µM
HCT-116 colon
  TGI: > 100 µM
COLO 205 colon
  TGI: > 100 µM
HCT-15 colon
  TGI: > 100 µM
SK-MEL-2 melanoma
  TGI: > 100 µM
MOLT-4 leukemia
  TGI: > 100 µM
TK-10 renal
  TGI: > 100 µM
K-562 leukemia
  TGI: > 100 µM
786-0 renal
  TGI: > 100 µM
SW-620 colon
  TGI: > 100 µM
